The text below walks through data of ChEMBL document CHEMBL4507319 (2021).

In assay [1] the target is T1, Mitogen-activated protein kinase kinase kinase 2 (Homo sapiens) (UniProt Q9Y2U5).
T1 sequence (whole entry): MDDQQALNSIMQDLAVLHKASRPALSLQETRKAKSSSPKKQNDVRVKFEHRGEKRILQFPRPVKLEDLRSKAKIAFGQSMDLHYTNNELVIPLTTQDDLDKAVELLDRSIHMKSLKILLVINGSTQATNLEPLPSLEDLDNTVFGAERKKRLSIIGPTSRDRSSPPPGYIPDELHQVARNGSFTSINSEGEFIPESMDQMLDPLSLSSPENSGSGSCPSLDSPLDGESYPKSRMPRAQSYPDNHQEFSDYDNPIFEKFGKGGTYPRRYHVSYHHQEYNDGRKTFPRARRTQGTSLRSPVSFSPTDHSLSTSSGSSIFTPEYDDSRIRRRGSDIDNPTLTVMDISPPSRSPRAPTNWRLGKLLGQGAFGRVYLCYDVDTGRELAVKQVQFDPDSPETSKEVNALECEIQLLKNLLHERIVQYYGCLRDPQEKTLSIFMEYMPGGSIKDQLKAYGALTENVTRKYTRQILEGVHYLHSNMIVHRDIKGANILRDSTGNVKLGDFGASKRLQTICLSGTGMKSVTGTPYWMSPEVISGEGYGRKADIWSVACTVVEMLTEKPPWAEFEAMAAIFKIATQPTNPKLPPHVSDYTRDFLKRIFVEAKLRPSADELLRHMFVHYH
The assay is described as follows: MEKK2(h) Eurofins kinase panel. As to conditions: Compound concentration 1.0 uM.

The target in assay [2] is Protein kinase C alpha type (Homo sapiens) (UniProt P17252). The assay is described as follows: PKCalpha (h) Eurofins kinase panel. To be noted: Compound concentration 1.0 uM.
Assay [3] has as its target Platelet-derived growth factor receptor beta (Homo sapiens) (UniProt P09619). The assay is described as follows: PDGFRbeta(h) Eurofins kinase panel. To be noted: Compound concentration 1.0 uM.
Assay [4] concerns the target G protein-coupled receptor kinase 5 (Homo sapiens) (UniProt P34947). The assay is described as follows: GRK5(h) Eurofins kinase panel. As to conditions: Compound concentration 1.0 uM.
For assay [5], the target named is Interleukin-1 receptor-associated kinase 1 (Homo sapiens) (UniProt P51617). Nature of the assay: IRAK1(h) Eurofins kinase panel. To be noted: Compound concentration 1.0 uM.
Sequence of Interleukin-1 receptor-associated kinase 1 (Homo sapiens) (P51617 whole entry, looked up): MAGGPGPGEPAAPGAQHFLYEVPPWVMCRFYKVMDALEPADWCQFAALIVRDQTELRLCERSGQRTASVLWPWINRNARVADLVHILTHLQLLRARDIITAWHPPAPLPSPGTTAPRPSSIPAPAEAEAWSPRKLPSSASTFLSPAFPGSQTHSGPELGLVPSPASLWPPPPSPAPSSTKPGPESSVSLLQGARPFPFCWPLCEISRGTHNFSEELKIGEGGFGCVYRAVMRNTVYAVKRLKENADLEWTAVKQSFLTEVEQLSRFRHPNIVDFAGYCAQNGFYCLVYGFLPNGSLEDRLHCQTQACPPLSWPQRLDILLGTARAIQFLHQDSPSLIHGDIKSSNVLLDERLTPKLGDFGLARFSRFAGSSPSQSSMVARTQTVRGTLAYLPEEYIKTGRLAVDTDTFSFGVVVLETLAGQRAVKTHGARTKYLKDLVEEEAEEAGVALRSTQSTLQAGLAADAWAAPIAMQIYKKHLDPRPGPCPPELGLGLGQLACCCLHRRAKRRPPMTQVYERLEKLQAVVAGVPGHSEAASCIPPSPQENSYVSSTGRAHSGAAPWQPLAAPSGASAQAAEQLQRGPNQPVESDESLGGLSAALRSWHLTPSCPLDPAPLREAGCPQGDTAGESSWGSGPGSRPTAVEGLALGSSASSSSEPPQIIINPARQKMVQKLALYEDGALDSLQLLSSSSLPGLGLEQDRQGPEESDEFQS
The target in assay [6] is Vascular endothelial growth factor receptor 2 (Homo sapiens) (UniProt P35968). Nature of the assay: KDR(h) Eurofins kinase panel. To be noted: Compound concentration 1.0 uM.
Assay [7] has as its target Bone morphogenetic protein receptor type-1B (Homo sapiens) (UniProt O00238). The assay is described as follows: ALK6(h) Eurofins kinase panel. To be noted: Compound concentration 1.0 uM.
Assay [8] addresses Calcium/calmodulin-dependent protein kinase type II subunit alpha (Homo sapiens) (UniProt Q9UQM7). Nature of the assay: CaMKIIalpha(h) Eurofins kinase panel. As to conditions: Compound concentration 1.0 uM.
Assay [9] concerns the target Activin receptor type-1-like (Homo sapiens) (UniProt P37023). Nature of the assay: ALK1(h) Eurofins kinase panel. To be noted: Compound concentration 1.0 uM.
The test system of a further assay is JJN-3. Nature of the assay: JJN3 cell line Proliferation assay. The class given is functional, Homo sapiens. As to conditions: time 3 day.
Assay [10] concerns the target Serine/threonine-protein kinase N2 (Homo sapiens) (UniProt Q16513). Nature of the assay: PRK2(h) Eurofins kinase panel. To be noted: Compound concentration 1.0 uM.
For assay [11], the target named is T2, Discoidin domain-containing receptor 2 (Homo sapiens) (UniProt Q16832).
T2 sequence (whole entry): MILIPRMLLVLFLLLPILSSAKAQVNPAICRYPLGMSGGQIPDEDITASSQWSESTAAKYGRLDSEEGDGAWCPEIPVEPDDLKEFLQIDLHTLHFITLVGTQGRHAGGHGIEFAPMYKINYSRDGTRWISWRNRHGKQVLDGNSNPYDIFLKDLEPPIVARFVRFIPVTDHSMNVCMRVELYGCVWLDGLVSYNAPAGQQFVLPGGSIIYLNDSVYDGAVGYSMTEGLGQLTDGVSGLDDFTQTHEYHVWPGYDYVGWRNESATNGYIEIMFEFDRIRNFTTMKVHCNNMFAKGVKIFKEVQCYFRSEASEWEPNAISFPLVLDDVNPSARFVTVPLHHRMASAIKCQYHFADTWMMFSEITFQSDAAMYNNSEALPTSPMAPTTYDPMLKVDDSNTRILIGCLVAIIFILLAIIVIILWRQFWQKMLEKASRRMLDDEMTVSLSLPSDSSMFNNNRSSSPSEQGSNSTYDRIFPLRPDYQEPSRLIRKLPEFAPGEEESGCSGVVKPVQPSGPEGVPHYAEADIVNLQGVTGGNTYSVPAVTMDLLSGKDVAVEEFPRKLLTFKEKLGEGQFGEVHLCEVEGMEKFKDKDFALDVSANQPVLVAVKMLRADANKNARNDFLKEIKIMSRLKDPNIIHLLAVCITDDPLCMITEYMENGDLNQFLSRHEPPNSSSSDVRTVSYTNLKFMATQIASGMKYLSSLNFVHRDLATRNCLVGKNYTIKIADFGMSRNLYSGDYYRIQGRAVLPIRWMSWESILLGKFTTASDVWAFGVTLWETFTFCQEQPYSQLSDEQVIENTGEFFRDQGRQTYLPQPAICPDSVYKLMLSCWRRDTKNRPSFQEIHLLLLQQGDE
Nature of the assay: DDR2(h) Eurofins kinase panel. As to conditions: Compound concentration 1.0 uM.

Assay [12] has as its target Tyrosine-protein kinase SYK (Homo sapiens) (UniProt P43405). Nature of the assay: Syk(h) Eurofins kinase panel. To be noted: Compound concentration 1.0 uM.
For assay [13], the target named is T3, Tyrosine-protein kinase Tec (Homo sapiens) (UniProt P42680).
T3 sequence (whole entry): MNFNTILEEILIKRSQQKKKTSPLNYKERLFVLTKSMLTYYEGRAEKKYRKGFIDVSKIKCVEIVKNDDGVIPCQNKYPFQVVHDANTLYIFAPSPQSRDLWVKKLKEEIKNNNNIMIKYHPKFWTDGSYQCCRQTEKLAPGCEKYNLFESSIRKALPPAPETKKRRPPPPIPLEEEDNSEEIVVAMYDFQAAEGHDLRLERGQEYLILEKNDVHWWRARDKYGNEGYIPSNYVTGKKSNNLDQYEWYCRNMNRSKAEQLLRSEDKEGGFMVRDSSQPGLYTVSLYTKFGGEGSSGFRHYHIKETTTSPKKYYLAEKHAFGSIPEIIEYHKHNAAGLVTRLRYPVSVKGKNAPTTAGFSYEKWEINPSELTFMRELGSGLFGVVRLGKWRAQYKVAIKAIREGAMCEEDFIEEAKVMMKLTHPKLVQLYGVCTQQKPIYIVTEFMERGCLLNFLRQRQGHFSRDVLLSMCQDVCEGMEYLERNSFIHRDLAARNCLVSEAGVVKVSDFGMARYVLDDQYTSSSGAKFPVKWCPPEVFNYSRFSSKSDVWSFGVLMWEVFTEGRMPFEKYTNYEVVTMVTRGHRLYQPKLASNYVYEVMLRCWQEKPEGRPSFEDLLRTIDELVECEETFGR
The assay is described as follows: Tec(h) activated Eurofins kinase panel. To be noted: Compound concentration 1.0 uM.

The target in assay [14] is 5'-AMP-activated protein kinase catalytic subunit alpha-2 (Homo sapiens, UniProt P54646). As to conditions: Compound concentration 1.0 uM.
Sequence of 5'-AMP-activated protein kinase catalytic subunit alpha-2 (P54646 whole entry, looked up): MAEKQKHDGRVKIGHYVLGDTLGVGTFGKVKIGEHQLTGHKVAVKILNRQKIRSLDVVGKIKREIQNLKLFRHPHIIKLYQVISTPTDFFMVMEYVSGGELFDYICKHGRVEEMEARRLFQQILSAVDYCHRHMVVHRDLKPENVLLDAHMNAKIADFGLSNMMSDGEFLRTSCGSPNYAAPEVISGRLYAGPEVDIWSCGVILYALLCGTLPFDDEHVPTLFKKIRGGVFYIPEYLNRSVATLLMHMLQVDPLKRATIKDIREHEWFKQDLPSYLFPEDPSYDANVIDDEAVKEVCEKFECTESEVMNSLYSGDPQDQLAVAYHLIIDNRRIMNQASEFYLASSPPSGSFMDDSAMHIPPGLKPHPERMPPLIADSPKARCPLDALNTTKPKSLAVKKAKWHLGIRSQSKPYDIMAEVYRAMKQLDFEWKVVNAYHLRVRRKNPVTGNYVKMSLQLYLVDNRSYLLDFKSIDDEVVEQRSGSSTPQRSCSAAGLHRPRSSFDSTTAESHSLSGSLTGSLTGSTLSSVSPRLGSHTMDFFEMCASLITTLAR
The target of assay [15] is Histamine H3 receptor (Homo sapiens) (UniProt Q9Y5N1). To be noted: Compound concentration 10.0 uM.
Sequence of Histamine H3 receptor (Homo sapiens) (Q9Y5N1 whole entry): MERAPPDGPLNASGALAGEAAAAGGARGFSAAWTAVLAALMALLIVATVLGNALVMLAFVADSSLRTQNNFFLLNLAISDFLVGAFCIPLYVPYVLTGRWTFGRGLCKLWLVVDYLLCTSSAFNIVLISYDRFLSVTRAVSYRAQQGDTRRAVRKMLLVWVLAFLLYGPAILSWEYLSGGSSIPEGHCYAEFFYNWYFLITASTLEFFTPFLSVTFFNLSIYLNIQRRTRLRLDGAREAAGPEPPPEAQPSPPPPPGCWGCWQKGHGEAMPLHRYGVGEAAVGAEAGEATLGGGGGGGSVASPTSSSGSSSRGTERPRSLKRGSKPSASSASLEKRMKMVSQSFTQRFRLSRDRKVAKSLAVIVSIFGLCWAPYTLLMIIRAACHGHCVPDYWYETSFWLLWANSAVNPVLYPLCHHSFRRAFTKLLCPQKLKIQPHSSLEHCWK

Each structure is given as a SMILES string.

Sequence of Serine/threonine-protein kinase N2 (Homo sapiens) (Q16513 whole entry, looked up, the tested form may be a part): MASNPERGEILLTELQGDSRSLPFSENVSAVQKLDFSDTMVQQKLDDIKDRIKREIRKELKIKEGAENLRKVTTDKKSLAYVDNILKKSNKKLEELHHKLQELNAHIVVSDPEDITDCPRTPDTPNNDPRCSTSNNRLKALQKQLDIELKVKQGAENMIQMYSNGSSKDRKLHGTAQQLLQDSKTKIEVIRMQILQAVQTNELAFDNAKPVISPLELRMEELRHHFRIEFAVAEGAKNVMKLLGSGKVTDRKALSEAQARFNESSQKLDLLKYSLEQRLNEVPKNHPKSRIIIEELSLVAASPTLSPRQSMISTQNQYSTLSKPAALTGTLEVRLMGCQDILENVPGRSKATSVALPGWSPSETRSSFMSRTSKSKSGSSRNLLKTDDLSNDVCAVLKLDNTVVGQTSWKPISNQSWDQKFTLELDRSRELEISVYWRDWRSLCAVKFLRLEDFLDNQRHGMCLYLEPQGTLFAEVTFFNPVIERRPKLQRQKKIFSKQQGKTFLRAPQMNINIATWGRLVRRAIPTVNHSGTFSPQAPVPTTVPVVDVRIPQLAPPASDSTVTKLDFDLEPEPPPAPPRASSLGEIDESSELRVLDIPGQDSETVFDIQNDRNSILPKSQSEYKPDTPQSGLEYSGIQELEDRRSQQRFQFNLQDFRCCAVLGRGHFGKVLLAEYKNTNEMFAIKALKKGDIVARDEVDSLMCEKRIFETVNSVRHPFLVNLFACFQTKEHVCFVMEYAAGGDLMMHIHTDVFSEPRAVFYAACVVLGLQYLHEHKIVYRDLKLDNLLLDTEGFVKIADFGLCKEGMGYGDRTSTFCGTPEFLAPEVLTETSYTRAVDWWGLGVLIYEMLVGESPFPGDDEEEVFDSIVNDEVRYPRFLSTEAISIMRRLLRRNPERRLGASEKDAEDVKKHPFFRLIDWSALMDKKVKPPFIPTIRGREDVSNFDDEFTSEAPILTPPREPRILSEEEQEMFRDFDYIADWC
Sequence of Platelet-derived growth factor receptor beta (Homo sapiens) (P09619 whole entry): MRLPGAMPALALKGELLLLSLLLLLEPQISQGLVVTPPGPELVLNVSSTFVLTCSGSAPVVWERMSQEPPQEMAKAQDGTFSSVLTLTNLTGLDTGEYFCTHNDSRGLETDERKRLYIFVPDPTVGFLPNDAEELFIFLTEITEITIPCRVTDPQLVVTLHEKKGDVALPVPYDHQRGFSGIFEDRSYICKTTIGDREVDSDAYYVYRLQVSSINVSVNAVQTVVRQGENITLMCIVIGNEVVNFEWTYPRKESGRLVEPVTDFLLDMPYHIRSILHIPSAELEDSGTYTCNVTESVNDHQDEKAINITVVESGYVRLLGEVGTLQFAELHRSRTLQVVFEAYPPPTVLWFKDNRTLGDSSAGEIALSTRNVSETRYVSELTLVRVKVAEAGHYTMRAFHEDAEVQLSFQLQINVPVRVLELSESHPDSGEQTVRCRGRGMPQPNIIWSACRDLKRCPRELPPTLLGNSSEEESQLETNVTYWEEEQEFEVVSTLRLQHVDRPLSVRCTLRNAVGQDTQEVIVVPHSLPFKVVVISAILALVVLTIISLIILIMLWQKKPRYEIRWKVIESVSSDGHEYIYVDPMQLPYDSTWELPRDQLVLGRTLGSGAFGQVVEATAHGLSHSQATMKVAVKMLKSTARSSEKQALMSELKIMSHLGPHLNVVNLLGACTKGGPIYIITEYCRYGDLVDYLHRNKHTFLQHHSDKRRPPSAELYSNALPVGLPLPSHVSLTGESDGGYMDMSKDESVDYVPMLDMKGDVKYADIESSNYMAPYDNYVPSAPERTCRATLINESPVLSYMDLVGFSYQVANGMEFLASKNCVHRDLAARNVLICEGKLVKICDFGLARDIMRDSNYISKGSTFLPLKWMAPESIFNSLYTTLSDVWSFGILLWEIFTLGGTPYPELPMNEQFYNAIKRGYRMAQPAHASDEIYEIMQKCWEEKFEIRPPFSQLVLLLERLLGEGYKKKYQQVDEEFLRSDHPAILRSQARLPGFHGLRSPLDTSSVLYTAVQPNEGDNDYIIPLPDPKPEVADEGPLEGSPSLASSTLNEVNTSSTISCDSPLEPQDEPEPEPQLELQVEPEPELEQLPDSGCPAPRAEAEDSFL
Sequence of G protein-coupled receptor kinase 5 (Homo sapiens) (P34947 whole entry, looked up): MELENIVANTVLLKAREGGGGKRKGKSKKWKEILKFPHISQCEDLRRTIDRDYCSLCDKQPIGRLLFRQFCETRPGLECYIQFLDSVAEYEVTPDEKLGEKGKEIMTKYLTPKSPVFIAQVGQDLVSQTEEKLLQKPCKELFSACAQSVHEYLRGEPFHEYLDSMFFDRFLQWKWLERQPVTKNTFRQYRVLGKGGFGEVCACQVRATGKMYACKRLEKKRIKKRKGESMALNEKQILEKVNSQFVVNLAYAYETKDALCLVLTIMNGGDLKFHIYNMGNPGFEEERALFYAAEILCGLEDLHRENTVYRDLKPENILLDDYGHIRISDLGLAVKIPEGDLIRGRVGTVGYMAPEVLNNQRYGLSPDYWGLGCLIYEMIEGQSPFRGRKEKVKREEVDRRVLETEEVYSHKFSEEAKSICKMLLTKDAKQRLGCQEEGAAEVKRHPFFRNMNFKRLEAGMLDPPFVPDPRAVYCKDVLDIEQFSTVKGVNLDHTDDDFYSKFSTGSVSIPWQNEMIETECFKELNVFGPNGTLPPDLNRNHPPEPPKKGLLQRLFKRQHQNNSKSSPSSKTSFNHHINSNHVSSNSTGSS

Regarding `CCc1ccccc1C(=O)Nc1n[nH]c2c(C)c(F)c(C3C(C#N)=C(C)N(C)C(C)=C3C#N)cc12` [BAY-3827], the % residual kinase activity is 103% in [1]; 44% in assay [2]; 108% in [3]; 98% in assay [4]; 99% in assay [5]; 90% in assay [6]. Moreover, the % residual kinase activity in assay [7] is 99%; in [8], 81%; in assay [9] it was 138%; in [10], 93%; in [11], 92%; in assay [12], 106%. Moreover, the % residual kinase activity in assay [13] is 100%; in [14] it was 0%. Besides, the “Cell Proliferation IC50” value with JJN-3 is more than 20 µM.
What is called inhibition is the drop in the measured response relative to a control, in per cent. Consider `CC1=C(C#N)C(c2ccc3c(c2)c(NC(=O)c2ccccc2C)nn3C)C(C#N)=C(C)N1` [BAY-974], for which the inhibition in [15] is 1.89%.
